Data taken from PubChem BioAssay (NCI).
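Results reflect a 48-hour exposure of cells in 96-well plates to compound at five concentrations. TGI denotes the concentration required for complete inhibition of growth.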 Where a SMILES comes first, the peptide text is derived from it.

Columns and labels:
Assay in all cases: DTP human tumour cell line panel, 48 h
SW-620 colon = system: SW-620 colon
NCI/ADR-RES ovarian = system: NCI/ADR-RES ovarian
U251 CNS = system: U251 CNS
SF-539 CNS = system: SF-539 CNS
HS 578T breast = system: HS 578T breast
PC-3 prostate = system: PC-3 prostate
CCRF-CEM leukemia = system: CCRF-CEM leukemia
RPMI-8226 leukemia = system: RPMI-8226 leukemia
KM12 colon = system: KM12 colon
SNB-19 CNS = system: SNB-19 CNS

Structure (SMILES) | TGI (SW-620 colon) [µM] | TGI (NCI/ADR-RES ovarian) [µM] | TGI (U251 CNS) [µM] | TGI (SF-539 CNS) [µM] | TGI (HS 578T breast) [µM] | TGI (PC-3 prostate) [µM] | TGI (CCRF-CEM leukemia) [µM] | TGI (RPMI-8226 leukemia) [µM] | TGI (KM12 colon) [µM] | TGI (SNB-19 CNS) [µM]
O=C1CC2(CCC(O)(c3cccs3)C(C(=O)c3cccs3)C2)C(=O)c2ccccc2N1 (centres undefined) | > 100 | > 100 | > 100 | > 100 | > 100 | > 100 | > 100 | – | – | –
COc1ccc(C2c3cc4c(cc3OC(O)(CO)C2C(=O)O)OCO4)cc1 (centres undefined) (tested in a mixture with another compound) | 37.6 | – | 36.5 | 43.6 | – | – | 55.5 | 49.5 | 67.2 | –
COC(OC)C1OC(CO)C(n2cc(F)c(=O)[nH]c2=O)C1O (centres undefined) | > 100 | > 100 | > 100 | > 100 | > 100 | > 100 | > 100 | > 100 | > 100 | > 100
CC(=O)c1ccc2c(c1)N(CCCN1CCN(CCO)CC1)c1ccccc1C2 | 31.3 | 27.7 | 29.8 | 33.1 | 31.2 | 27.8 | 28.2 | 30.1 | 31.1 | 33.8
CC(=O)Oc1ccc(CO)cc1OC(C)=O | > 100 | – | > 100 | – | – | – | 76.1 | > 100 | > 100 | > 100
COc1cc2c(cc1OCCCCCCCCN1C(=O)c3cccc4cccc(c34)C1=O)N=C[C@@H]1CCCN1C2=O | > 100 | 19.4 | 25.3 | 13.2 | > 100 | 27.6 | 7.28 | 8.53 | 52 | > 100
O=c1[nH]c(Nc2ccc(Cl)cc2)nc2nc[nH]c12 | > 100 | > 100 | > 100 | > 100 | 92.2 | > 100 | – | > 100 | > 100 | > 100
O=C(O)C(O)C(O)C(O)C(=O)CO (centres undefined) | > 100 | > 100 | > 100 | > 100 | > 100 | > 100 | > 100 | > 100 | > 100 | > 100
COC(=O)C1=C(O)CCCC(CCC(C)=O)=C1 | > 100 | > 100 | > 100 | 61.1 | > 100 | > 100 | 25.2 | > 100 | > 100 | > 100
Nc1cc(-c2ccc(Cl)cc2)nn1-c1nc2ccccc2nc1-c1ccccc1 | > 100 | > 100 | > 100 | > 100 | > 100 | > 100 | > 100 | > 100 | > 100 | > 100
COC(=S)OC1CC(n2cnc3c(N)ncnc32)OC1CO[Si](C)(C)C(C)(C)C (centres undefined) | > 100 | 82.6 | 28.1 | – | – | 44.1 | 75.9 | > 100 | 89.8 | > 100
N#Cc1c(N)nc2c(c1-c1ccc(Br)cc1)CSc1ccccc1-2 | > 100 | > 100 | > 100 | > 100 | > 100 | 86.5 | 92 | 61.1 | > 100 | > 100
C1=CC(=[N+]2N=C(c3ccccc3)CC2c2ccccc2)C=CC1=C1SC(c2ccccc2)(c2ccccc2)c2ccccc21 (centres undefined) | > 100 | > 100 | > 100 | > 100 | > 100 | > 100 | > 100 | – | > 100 | > 100
C/C(N=Nc1nc2ccccc2[nH]1)=C1/C=CC=CN1O | > 100 | > 100 | > 100 | > 100 | > 100 | > 100 | > 100 | > 100 | > 100 | > 100
CCC(C)C(NC(=O)C1CCCN1C(=O)C(CC(C)C)NC(=O)C(CC(C)C)NC(=O)C(N)CC(C)C)C(=O)NC(C(=O)NCC(=O)NC(CC(N)=O)C(=O)NC(CC(C)C)C(=O)NC(CC(C)C)C(=O)NC(CC(C)C)C(N)=O)C(C)C (centres undefined) (H-LLLPIVGNLLL-NH2; configuration not given here) | > 50 | > 50 | > 50 | > 50 | > 50 | > 50 | > 50 | > 50 | > 50 | > 50
CSCCC(NC(=O)OCc1ccccc1)P(=O)(O)c1ccccc1 (centres undefined) | > 100 | > 100 | > 100 | – | > 100 | > 100 | > 100 | > 100 | – | > 100
CCOC(=O)C(=O)NCCCN1CCOCC1 | > 100 | – | > 100 | > 100 | – | – | > 100 | – | > 100 | > 100
